This passage reports EC50 results from US11951094B2, “TLR2 modulator compounds, pharmaceutical compositions and uses thereof” (Axial Therapeutics, Inc., priority 2020, dated 2024).

The structures appear in SMILES notation.

Sequence of TLR2 (O60603 21-784): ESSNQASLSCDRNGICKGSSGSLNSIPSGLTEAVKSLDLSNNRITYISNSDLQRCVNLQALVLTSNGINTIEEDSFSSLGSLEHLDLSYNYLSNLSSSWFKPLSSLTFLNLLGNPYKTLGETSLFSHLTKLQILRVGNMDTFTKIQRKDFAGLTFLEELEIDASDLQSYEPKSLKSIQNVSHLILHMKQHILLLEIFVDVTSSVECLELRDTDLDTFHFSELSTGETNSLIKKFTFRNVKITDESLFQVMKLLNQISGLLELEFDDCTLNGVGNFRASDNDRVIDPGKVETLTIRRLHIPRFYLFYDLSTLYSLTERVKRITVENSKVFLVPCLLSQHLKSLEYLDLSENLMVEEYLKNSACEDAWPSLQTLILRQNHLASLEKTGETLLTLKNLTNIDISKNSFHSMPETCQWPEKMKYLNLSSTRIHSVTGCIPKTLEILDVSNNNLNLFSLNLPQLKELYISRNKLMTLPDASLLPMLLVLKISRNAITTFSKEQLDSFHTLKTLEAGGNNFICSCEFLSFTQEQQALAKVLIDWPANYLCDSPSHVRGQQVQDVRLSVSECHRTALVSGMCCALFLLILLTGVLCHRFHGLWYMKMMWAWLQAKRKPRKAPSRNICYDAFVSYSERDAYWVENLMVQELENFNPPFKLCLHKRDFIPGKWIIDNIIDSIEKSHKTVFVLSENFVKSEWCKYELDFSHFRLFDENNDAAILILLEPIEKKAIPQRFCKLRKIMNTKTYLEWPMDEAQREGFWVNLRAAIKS

One test concerns the target TLR2 (Homo sapiens, UniProt O60603). Put plainly: TLR2 agonist screening assay, HEK-Blue TLR2 reporter cell line (NF-kB-driven SEAP, absorbance at 600 nm). Type of test: cell-based. On the set-up: host or cells: HEK-293 (HEK-Blue TLR2 reporter cell line). Particulars: HEK-Blue TLR2 reporter cells, agonist mode; average of all runs (Table 3). A digest of the protocol: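 EC50 values come from dilution series of agonist on TLR2-transfected HEK-293 reporter cells carrying an NF-kB-SEAP construct. Cells sat overnight with compound in substrate-containing Detection medium at 1% DMSO, and secreted phosphatase activity was quantified as absorbance at 600 nm.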
Regarding `O=C(N[C@H]1C[C@@H]1c1ccccc1)[C@@H]1CN(C(=O)c2cccc(C(=O)N3C[C@@H](C(=O)N[C@H]4C[C@@H]4c4ccccc4)[C@H](C(=O)N[C@H]4C[C@@H]4c4ccccc4)C3)c2)C[C@H]1C(=O)N[C@H]1C[C@@H]1c1ccccc1` (racemic) [Compound 001], the EC50 was > 1 µM.
Compound `CCCCCCCCCCCC(=O)N1CCN(C(=O)c2ccc(C(=O)N3C[C@@H](C(=O)N[C@H]4C[C@@H]4c4ccccc4)[C@H](C(=O)N[C@H]4C[C@@H]4c4ccccc4)C3)cc2)CC1C(=O)NCCCCCC` (stereo partly drawn) [Compound 057, (3S,4S)-1-(4-(4-dodecanoyl-3-(hexylcarbamoyl)piperazine-1-carbonyl)benzoyl)-N3,N4-bis((1S,2R)-2-phenylcyclopropyl)pyrrolidine-3,4-dicarboxamide] registered an EC50 of 0.051 to 0.35 µM.
The same measure, in the same setting: as for `CCCCCCCNC(=O)[C@@H]1CN(C(=O)c2ccc(C(=O)N3C[C@@H](C(=O)N[C@H]4C[C@@H]4c4ccccc4)[C@H](C(=O)N[C@H]4C[C@@H]4c4ccccc4)C3)cc2)C[C@H]1OCCCCCCC` (relative stereo) [Compound 062, (3S,4S)-1-(4-((3R*,4S*)-3-(heptylcarbamoyl)-4-(heptyloxy)pyrrolidine-1-carbonyl)benzoyl)-N3,N4-bis((1S,2R)-2-phenylcyclopropyl)pyrrolidine-3,4-dicarboxamide], the figure is 0.051 to 0.35 µM; as for `CCCCCCCS(=O)(=O)N1CCN(C(=O)c2ccc(C(=O)N3C[C@@H](C(=O)N[C@H]4C[C@@H]4c4ccccc4)[C@H](C(=O)N[C@H]4C[C@@H]4c4ccccc4)C3)cc2)CC1C(=O)NCCCCCC` (stereo partly shown) [Compound 047], > 1 µM; as for `CCCCCCCO[C@H]1CN(C(=O)c2ccc(C(=O)N3C[C@@H](C(=O)N[C@H]4C[C@@H]4c4ccccc4)[C@H](C(=O)N[C@H]4C[C@@H]4c4ccccc4)C3)cc2)C[C@H]1C(=O)NCCCCCC` (single isomer, unassigned) [Compound 073, (3S,4S)-1-(4-((3R*,4R*)-3-(heptyloxy)-4-(hexylcarbamoyl)pyrrolidine-1-carbonyl)benzoyl)-N3,N4-bis((1S,2R)-2-phenylcyclopropyl)pyrrolidine-3,4-dicarboxamide], 0.351 to 1 µM.
For the compound `CCCCCCCCOC1CN(C(=O)c2ccc(C(=O)N3C[C@@H](C(=O)N[C@H]4C[C@@H]4c4ccccc4)[C@H](C(=O)N[C@H]4C[C@@H]4c4ccccc4)C3)cc2)C[C@H]1OCCCCCCCC` (stereo partly shown) [Compound 020], the EC50 is > 1 µM.

Still in this test, the particulars now being: HEK-Blue TLR2 reporter cells, agonist mode; average of all runs (Table 4).
Consider `O=C(N[C@H]1C[C@@H]1c1ccccc1)[C@@H]1CN(C(=O)c2ccc(C(=O)N3C[C@@H](C(=O)N[C@H]4C[C@@H]4c4ccccc4)[C@H](C(=O)N[C@H]4C[C@@H]4c4cccnc4)C3)cc2)C[C@H]1C(=O)N[C@H]1C[C@@H]1c1ccccc1` (relative stereo) [Compound 096, (3S,4S)—N3-((1S)-2-phenylcyclopropyl)-N4-(2-phenylcyclopropyl)-1-(4-((3S,4S)-3-(((1S,2R)-2-phenylcyclopropyl)carbamoyl)-4-(((1S*,2R*)-2-(pyridin-3-yl)cyclopropyl)carbamoyl)pyrrolidine-1-carbonyl)benzoyl)pyrrolidine-3,4-dicarboxamide], for which the EC50 lay in the range of 0.0001 to 0.05 µM.
Still for that read-out and setting: as for `CCCCCCNC(=O)[C@H](CN[C@@H](c1ccc(C(=O)N2C[C@@H](C(=O)N[C@H]3C[C@@H]3c3ccccc3)[C@H](C(=O)N[C@H]3C[C@@H]3c3ccccc3)C2)cc1)C(F)(F)F)NC(=O)CCCCCC` (single isomer, unassigned) [Compound 148], the figure is 0.351 to 1 µM; as for `CCCCCCCCCCCCCCCN1CCCC(NC(=O)c2ccc(C(=O)N3C[C@@H](C(=O)N[C@H]4C[C@@H]4c4ccccc4)[C@H](C(=O)N[C@H]4C[C@@H]4c4ccccc4)C3)cc2)C1=O` (stereo partly shown) [Compound 136], 0.0001 to 0.05 µM.
Still for that read-out and setting: under `CCCCCCCCCCCCCCNC(=O)[C@H]1CN(S(=O)(=O)c2ccc(C(=O)N3C[C@@H](C(=O)N[C@H]4C[C@@H]4c4ccccc4)[C@H](C(=O)N[C@H]4C[C@@H]4c4ccccc4)C3)cc2)CCN1C(C)=O` [Compound 195, (3S,4S)-1-(4-(((R)-4-acetyl-3-(tetradecylcarbamoyl)piperazin-1-yl)sulfonyl)benzoyl)-N3,N4-bis((1S,2R)-2-phenylcyclopropyl)pyrrolidine-3,4-dicarboxamide] stands > 1 µM; under `CCCCCCCC(=O)N1CCN(S(=O)(=O)c2ccc(C(=O)N3C[C@@H](C(=O)N[C@H]4C[C@@H]4c4ccccc4)[C@H](C(=O)N[C@H]4C[C@@H]4c4ccccc4)C3)cc2)C[C@@H]1C(=O)NCCCCCC` [Compound 161, (3S,4S)-1-(4-(((R)-3-(hexylcarbamoyl)-4-octanoylpiperazin-1-yl)sulfonyl)benzoyl)-N3,N4-bis((1S,2R)-2-phenylcyclopropyl)pyrrolidine-3,4-dicarboxamide], > 1 µM; under `CCCCCCCCCCCCCCS(=O)(=O)N[C@@H]1CCN(C(=O)c2ccc(C(=O)N3C[C@@H](C(=O)N[C@H]4C[C@@H]4c4ccccc4)[C@H](C(=O)N[C@H]4C[C@@H]4c4ccccc4)C3)cc2)C1` [Compound 083, (3S,4S)—N3,N4-bis((1S,2R)-2-phenylcyclopropyl)-1-(4-((R)-3-(tetradecylsulfonamido)pyrrolidine-1-carbonyl)benzoyl)pyrrolidine-3,4-dicarboxamide], > 1 µM.
Still for that read-out and setting: under `CCCCCCCC(=O)N1CCCN(C(=O)c2ccc(C(=O)N3C[C@@H](C(=O)N[C@H]4C[C@@H]4c4ccccc4)[C@H](C(=O)N[C@H]4C[C@@H]4c4ccccc4)C3)cc2)C[C@@H]1C(=O)NCCCCCC` (single isomer, unassigned) [Compound 146] stands 0.351 to 1 µM.
`CCCCCCCC(=O)N1CCN(S(=O)(=O)c2cccc(C(=O)N3C[C@@H](C(=O)N[C@H]4C[C@@H]4c4ccccc4)[C@H](C(=O)N[C@H]4C[C@@H]4c4ccccc4)C3)c2)C[C@@H]1C(=O)NCCCCCC` [Compound 171, (3S,4S)-1-(3-(((R)-3-(hexylcarbamoyl)-4-octanoylpiperazin-1-yl)sulfonyl)benzoyl)-N3,N4-bis((1S,2R)-2-phenylcyclopropyl)pyrrolidine-3,4-dicarboxamide]: the EC50 was > 1 µM.
The same measure, in the same setting: under `CCCCCCCCCCCCCNC(=O)N[C@@H]1CCN(C(=O)c2ccc(C(=O)N3C[C@@H](C(=O)N[C@H]4C[C@@H]4c4ccccc4)[C@H](C(=O)N[C@H]4C[C@@H]4c4ccccc4)C3)cc2)C1` [Compound 079, (3S,4S)—N3,N4-bis((1S,2R)-2-phenylcyclopropyl)-1-(4-((R)-3-(3-tridecylureido)pyrrolidine-1-carbonyl)benzoyl)pyrrolidine-3,4-dicarboxamide] stands 0.0001 to 0.05 µM.
The same measure, in the same setting: as for `CCCCCCCCCCCCCCCN[C@H]1CN(C(=O)c2ccc(C(=O)N3C[C@@H](C(=O)N[C@H]4C[C@@H]4c4ccccc4)[C@H](C(=O)N[C@H]4C[C@@H]4c4ccccc4)C3)cc2)C[C@@H]1O` [Compound 087, (3S,4S)-1-(4-((3S,4S)-3-hydroxy-4-(pentadecylamino)pyrrolidine-1-carbonyl)benzoyl)-N3,N4-bis((1S,2R)-2-phenylcyclopropyl)pyrrolidine-3,4-dicarboxamide], the figure is > 1 µM; as for `CCCCCCCCCC(=O)N[C@@H](CNC(=O)Nc1ccc(C(=O)N2C[C@@H](C(=O)N[C@H]3C[C@@H]3c3ccccc3)[C@H](C(=O)N[C@H]3C[C@@H]3c3ccccc3)C2)cc1)C(=O)NCCCCCC` [Compound 235, (3S,4S)-1-(4-(3-((S)-2-decanamido-3-(hexylamino)-3-oxopropyl)ureido)benzoyl)-N3,N4-bis((1S,2R)-2-phenylcyclopropyl)pyrrolidine-3,4-dicarboxamide], > 1 µM.
Still for that read-out and setting: as for `CCCCCCCCCCCCCCNC(=O)[C@H]1CN(Cc2ccc(C(=O)N3C[C@@H](C(=O)N[C@H]4C[C@@H]4c4ccccc4)[C@H](C(=O)N[C@H]4C[C@@H]4c4ccccc4)C3)cc2)C(=O)CN1C` [Compound 092, (3S,4S)-1-(4-(((R)-4-methyl-2-oxo-5-(tetradecylcarbamoyl)piperazin-1-yl)methyl)benzoyl)-N3,N4-bis((1S,2R)-2-phenylcyclopropyl)pyrrolidine-3,4-dicarboxamide], the figure is 0.051 to 0.35 µM.
For `CCCCCCCCCC(=O)N[C@@H](Cc1nnc(-c2ccc(C(=O)N3C[C@@H](C(=O)N[C@H]4C[C@@H]4c4ccccc4)[C@H](C(=O)N[C@H]4C[C@@H]4c4ccccc4)C3)cc2)s1)C(=O)NCCCCCC` [Compound 243, (3S,4S)-1-(4-(5-((S)-2-decanamido-3-(hexylamino)-3-oxopropyl)-1,3,4-thiadiazol-2-yl)benzoyl)-N3,N4-bis((1S,2R)-2-phenylcyclopropyl)pyrrolidine-3,4-dicarboxamide], the EC50 is 0.0001 to 0.05 µM.
Compound `CCCCCCCC[C@@H]1CN(C(=O)c2ccc(C(=O)N3C[C@@H](C(=O)N[C@H]4C[C@@H]4c4ccccc4)[C@H](C(=O)N[C@H]4C[C@@H]4c4ccccc4)C3)cc2)C[C@H]1C(=O)NCCCCCC` (racemic) [Compound 085, (3S,4S)-1-(4-((3S*,4S*)-3-(hexylcarbamoyl)-4-octylpyrrolidine-1-carbonyl)benzoyl)-N3,N4-bis((1S,2R)-2-phenylcyclopropyl)pyrrolidine-3,4-dicarboxamide] showed an EC50 of 0.0001 to 0.05 µM.
On the same count and under the same terms, under `CCCCCCCCCCCCCCNC(=O)[C@@H]1CN(C(=O)c2ccc(C(=O)N3C[C@@H](C(=O)N[C@H]4C[C@@H]4c4ccccc4)[C@H](C(=O)N[C@H]4C[C@@H]4c4ccccc4)C3)cc2)CCN1C(=O)CC(C)(C)C` [Compound 253, (3S,4S)-1-(4-((S)-4-(3,3-dimethylbutanoyl)-3-(tetradecylcarbamoyl)piperazine-1-carbonyl)benzoyl)-N3,N4-bis((1S,2R)-2-phenylcyclopropyl)pyrrolidine-3,4-dicarboxamide] stands > 1 µM.
The same measure, in the same setting: under `CO[C@H]1CN(C(=O)c2ccc(C(=O)N3C[C@@H](C(=O)N[C@H]4C[C@@H]4c4ccccc4)[C@H](C(=O)N[C@H]4C[C@@H]4c4ccccc4)C3)cc2)C[C@@H]1NC(=O)NCc1ccc(F)cc1` [Compound 183, (3S,4S)-1-(4-((3S,4S)-3-(3-(4-fluorobenzyl)ureido)-4-methoxypyrrolidine-1-carbonyl)benzoyl)-N3,N4-bis((1S,2R)-2-phenylcyclopropyl)pyrrolidine-3,4-dicarboxamide] stands 0.051 to 0.35 µM.
